≈ marks a conversion by molar mass, not a printed value. Calls of active or inactive are those of the source. The calls are words filed in the database; no cut-off is given here.
Tests used:
Pichia kudriavzevii [1] = experiment: Antifungal activity against Candida krusei 10153 incubated for 48 hrs by CLSI based liquid microdilution technique; type: functional
Cryptococcus neoformans [2] = experiment: Antifungal activity against Cryptococcus neoformans H99 incubated for 72 hrs by CLSI based liquid microdilution technique; type: functional
Nakaseomyces glabratus [3] = experiment: Antifungal activity against Candida glabrata 7804 incubated for 48 hrs by CLSI based liquid microdilution technique; type: functional
Candida albicans [4] = experiment: Antifungal activity against Candida albicans SC5314 incubated for 48 hrs by CLSI based liquid microdilution technique; type: functional
Candida albicans [5] = experiment: Synergistic antifungal activity against Candida albicans SC5314 incubated for 48 hrs in presence of FLC by CLSI based liquid microdilution technique; type: functional
[6] = Cytotoxicity against HUVEC cells measured after 72 hrs by CCK8 assay; type: toxicity, cell-based; conditions: human
[7] = target: Lanosterol 14-alpha demethylase (Candida albicans (strain SC5314 / ATCC MYA-2876) (Yeast), UniProt P10613); experiment: Inhibition of CYP51 in Candida albicans SC5314 assessed as decrease in ergosterol level at 4 ug/ml measured after 48 hrs by GC-MS analysis; conditions: at 4 µg/mL
[8] = Cytotoxicity against human L02 cells measured after 72 hrs by CCK8 assay; type: toxicity, cell-based
Pichia kudriavzevii [9] = experiment: Synergistic antifungal activity against Candida krusei 10153 incubated for 48 hrs in presence of FLC by CLSI based liquid microdilution technique; type: functional
Nakaseomyces glabratus [10] = experiment: Synergistic antifungal activity against Candida glabrata 7804 incubated for 48 hrs in presence of FLC by CLSI based liquid microdilution technique; type: functional
Candida albicans [11] = experiment: Synergistic antifungal activity against Candida albicans SC5314 infected in immunosuppressed ICR mouse assessed as reduction in fungal burden in kidney at 10 mg/kg, ip treated for 5 days consecutively in presence of FLC; type: functional, organism-based; conditions: time 5.0 day
Candida albicans [12] = experiment: Inhibition of biofilm formation in Candida albicans SC5314 at 4 ug/ml incubated for 24 hrs by XTT reduction method relative to control; type: functional; conditions: dose 4.0 µg/ml
Heat shock protein HSP90 = Heat shock protein HSP90 (Homo sapiens, UniProt P07900+P08238); experiment: Inhibition of human HSP90 using FITC-Geldanamycin as substrate incubated for 6 hrs by fluorescence polarization assay; type: protein assay
Candida albicans [13] = experiment: Antifungal activity against Candida albicans SC5314 infected in immunosuppressed ICR mouse assessed as reduction in fungal burden in kidney at 10 mg/kg, ip treated for 5 days consecutively; type: functional, organism-based; conditions: time 5.0 day
[14] = target: Heat shock protein 90 homolog (Candida albicans (strain SC5314 / ATCC MYA-2876) (Yeast), UniProt P46598); experiment: Inhibition of HSP90 extracted from Candida albicans SC5314 lysate using FITC-Geldanamycin as substrate incubated for 6 hrs by fluorescence polarization assay; type: subcellular
Cryptococcus neoformans [15] = experiment: Synergistic antifungal against Cryptococcus neoformans H99 incubated for 72 hrs in presence of FLC by CLSI based liquid microdilution technique; type: functional

Heat shock protein 90 homolog, sequence (P46598 whole entry): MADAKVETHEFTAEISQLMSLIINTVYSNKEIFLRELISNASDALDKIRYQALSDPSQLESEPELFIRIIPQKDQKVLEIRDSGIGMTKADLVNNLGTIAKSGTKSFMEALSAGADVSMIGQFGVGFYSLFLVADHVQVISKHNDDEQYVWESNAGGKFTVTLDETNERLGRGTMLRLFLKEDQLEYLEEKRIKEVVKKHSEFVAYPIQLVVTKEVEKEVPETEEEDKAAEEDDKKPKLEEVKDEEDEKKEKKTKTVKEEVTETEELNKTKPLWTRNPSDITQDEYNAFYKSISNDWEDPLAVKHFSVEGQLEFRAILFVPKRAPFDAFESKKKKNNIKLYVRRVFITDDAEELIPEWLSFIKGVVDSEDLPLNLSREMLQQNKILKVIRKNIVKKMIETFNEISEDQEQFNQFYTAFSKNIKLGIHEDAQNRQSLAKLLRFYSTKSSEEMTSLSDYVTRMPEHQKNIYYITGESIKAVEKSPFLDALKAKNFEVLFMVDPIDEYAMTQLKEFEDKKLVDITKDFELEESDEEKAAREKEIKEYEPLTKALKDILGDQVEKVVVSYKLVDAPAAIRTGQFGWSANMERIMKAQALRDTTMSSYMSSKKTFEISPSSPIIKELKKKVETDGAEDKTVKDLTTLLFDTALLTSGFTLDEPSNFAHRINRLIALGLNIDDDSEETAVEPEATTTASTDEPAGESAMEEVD
Lanosterol 14-alpha demethylase, sequence (P10613 whole entry): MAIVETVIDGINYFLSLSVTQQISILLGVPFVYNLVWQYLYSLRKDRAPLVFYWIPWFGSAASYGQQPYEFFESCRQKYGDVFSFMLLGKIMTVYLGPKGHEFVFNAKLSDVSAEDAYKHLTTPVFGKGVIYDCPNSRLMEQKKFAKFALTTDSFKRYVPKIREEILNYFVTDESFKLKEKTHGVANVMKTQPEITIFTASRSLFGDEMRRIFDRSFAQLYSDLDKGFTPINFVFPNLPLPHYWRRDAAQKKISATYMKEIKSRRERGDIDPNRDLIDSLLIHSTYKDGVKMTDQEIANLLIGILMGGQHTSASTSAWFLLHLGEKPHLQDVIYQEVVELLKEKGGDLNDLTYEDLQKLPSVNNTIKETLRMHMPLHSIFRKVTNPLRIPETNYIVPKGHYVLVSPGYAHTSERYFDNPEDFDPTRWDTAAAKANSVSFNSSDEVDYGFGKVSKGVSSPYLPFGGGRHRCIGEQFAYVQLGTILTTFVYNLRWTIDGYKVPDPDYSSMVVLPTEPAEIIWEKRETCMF

## CCNC(=O)c1noc(-c2cc(-c3ccc(C)cc3)c(O)cc2O)c1-c1ccc(CN2CCN(C(=O)CCCCCOc3ccc(CN(C)CC(O)(Cn4cncn4)c4ccc(F)cc4F)cc3)CC2)cc1 (stereo not given)
Pichia kudriavzevii [1]
  MIC80: > 64 µg/mL
Cryptococcus neoformans [2]
  MIC80: 4 µg/mL (≈ 4.07 µM)
Nakaseomyces glabratus [3]
  MIC80: 16 µg/mL (≈ 16.3 µM)
Candida albicans [4]
  MIC80: 4 µg/mL (≈ 4.07 µM)

## CCNC(=O)c1noc(-c2cc(-c3ccc(C)cc3)c(O)cc2O)c1-c1ccc(CN2CCOCC2)cc1
Candida albicans [5]
  fractional inhibitory concentration index (FICI): 0.13
[6]
  IC50 at 72 h: 680 nM
Pichia kudriavzevii [1]
  MIC80: > 64 µg/mL
[7]
  inhibition (INH): Not_active
[8]
  IC50 at 72 h: 680 nM
Pichia kudriavzevii [9]
  fractional inhibitory concentration index (FICI): 2
Nakaseomyces glabratus [10]
  fractional inhibitory concentration index (FICI): 0.5
Candida albicans [11]
  Activity: Active
Cryptococcus neoformans [2]
  MIC80: 32 µg/mL (≈ 62.3 µM)
Nakaseomyces glabratus [3]
  MIC80: > 64 µg/mL
Candida albicans [12]
  inhibition: Active; Exhibited Little Inhibitory Effect
Heat shock protein HSP90
  IC50: 1540 nM
Candida albicans [13]
  Activity: inactive
[14]
  IC50: 390 nM
Cryptococcus neoformans [15]
  fractional inhibitory concentration index (FICI): 0.31
Candida albicans [4]
  MIC80: 32 µg/mL (≈ 62.3 µM)

From ChEMBL document CHEMBL6096686, “Lanosterol 14α-Demethylase (CYP51)/Heat Shock Protein 90 (Hsp90) Dual Inhibitors for the Treatment of Invasive Candidiasis” (J Med Chem, 2025)
